Earlier results, collected in paper PMC10042540, “Targeting oncogenic KRasG13C with nucleotide-based covalent inhibitors” (eLife, 2023).

Target: KRas
Set-up: method as in Jeganathan et al., 2018
Conditions: reversible affinity; ref Jeganathan et al., 2018; cited from earlier work

Nc1nc2c(ncn2[C@@H]2O[C@H](COP(=O)(O)OP(=O)(O)OCCNC(=O)CCl)[C@@H](O)[C@H]2O)c(=O)[nH]1 [SML-8-73-1]
Kd: ~0.14 µM
